Each compound was assayed on endophthalmitis (assay: Combination therapy treatment of severe endophthalmitis in a human subject (case report)). Details: initial regimen without cyclosporin A: intravitreal Vancomycin and Ceftazidime, then Ceftazidime, Vancomycin and Prednisolone eye drops every two hours; over the next two days.
Assay type: in vivo
Experimental: A uniocular subject was diagnosed with severe endophthalmitis in their only functioning eye. […] The subject was treated with an aggressive treatment regimen of antibiotics (Intra Vitreal injection of Vancomycin and Ceftazidime) followed by Ceftazidime eye drops. Vancomycin eye drops and steroid Prednisolone eye drops every two hours.
Cyclosporin A (sold as […]® from Allergan, Inc.) was added to the treatment regimen and was administered prior to administering the antibiotic and steroid eye drops.
The Ceftriaxone was added to the regimen to increase the aggressiveness of the therapy with the goal of preventing or eliminating any traces of infection in the retina, which can result in irreversible blindness.

Row | Structure (SMILES) | improvement of the subject
1 | CC(C)(O/N=C(\C(=O)N[C@@H]1C(=O)N2C(C(=O)[O-])=C(C[n+]3ccccc3)CS[C@H]12)c1csc(N)n1)C(=O)O [Ceftazidime] | no improvement
2 | C[C@]12C=CC(=O)C=C1CC[C@@H]1[C@@H]2[C@@H](O)C[C@@]2(C)[C@H]1CC[C@]2(O)C(=O)CO [Prednisolone] | no improvement
3 | CN[C@H](CC(C)C)C(=O)N[C@H]1C(=O)N[C@@H](CC(N)=O)C(=O)N[C@H]2C(=O)N[C@H]3C(=O)N[C@H](C(=O)N[C@H](C(=O)O)c4cc(O)cc(O)c4-c4cc3ccc4O)[C@H](O)c3ccc(c(Cl)c3)Oc3cc2cc(c3O[C@@H]2O[C@H](CO)[C@@H](O)[C@H](O)[C@H]2O[C@H]2C[C@](C)(N)[C@H](O)[C@H](C)O2)Oc2ccc(cc2Cl)[C@H]1O [Vancomycin] | no improvement

From patent US20150111833A1, “Method Of Treating An Ocular Disease And Compositions Effective For Treating An Ocular Disease” (Howard University, priority 2012, published 2015)
